# In PMC11674305, “Inhibition of Neural Crest Cell Migration by Strobilurin Fungicides and Other Mitochondrial Toxicants” (Cells, 2024):
# Several values for one entry are separate records, joined by “and”; a condition that tells them apart may be missing. Equal values may be shown once. Read-outs that look alike come from different tables or passages of the source.
# Columns and labels:
# Assay type in all cases: cell-based, human
# neural crest cells (NCC) [1] = experiment: cMINC (UKN2) assay: circular migration of neural crest cells, with viability; details: for Migration / Viability: Pre-Screen 1, single concentration 1:1000 of stock, in most cases 100 μM; for Ratio: migration/cytotoxicity ratio, hit requires ≥ 1.3, HTC used where no viability effect; for BMC25 (M): migration
# Description: The research group initially developed the first version of the test in 2012 [40]. The test has been further improved and characterized. To perform the cMINC assay, NCCs were thawed in N2-S Medium and seeded on the day of migration-1 (DoM-1) on a 96-well polystyrene plate (Corning, Glendale, AZ, USA) around stoppers, to create a cell-free area of 2 mm diameter (Platypus Technologies, Madison, WI, USA). The cells were resuspended in N2-S Medium supplemented with […] of the cytokines EGF and FGF, and then counted and seeded around the stoppers at a density of 95,000 cells/cm^2. After 24 h, the stoppers were removed, and the medium was exchanged. The removal of the stoppers initiates migration of the NCCs into the cell-free area. For the treatment, the 5x-concentrated toxicant solution was added to the medium 24 h after stopper removal.
# On day 2, cells were stained with 533 nM calcein-AM and 1 μg/mL H-33342 (both from Sigma, Steinheim, Germany) and observed using two different channels on the Cellomics ArrayScan VTI imaging microscope (Thermo Fisher, Pittsburgh, PA, USA) to assess viability and migration. For the migration, four pictures were taken in the region of interest (ROI) (5× magnification objective). Migration data were obtained using the software “Ringassay” (http://invitrotox.uni-konstanz.de/ (accessed on 3 November 2024)), which can estimate the previously cell-free area and count the number of H-33342 and calcein-AM double-positive cells. Cell viability was assessed by taking four pictures outside of the ROI with 10× magnification objective. Viable cells were defined as H-33342 and calcein-AM double-positive cells and calculated by an automatic algorithm of the ArrayScan VTI 700 Series software as described earlier. […] Each plate included wells for testing of negative (0.1% DMSO solvent) and positive controls (200 nM cytochalasin D) in addition to the wells for blinded samples. The data from control wells were used as acceptance criteria of the assay. […] Renormalization of the concentration–response curves was performed after a visual inspection that the two lowest test-concentration data points are in the no-effect range. The average response (relative to solvent control) of the lowest two test concentrations was calculated, and all other data points of the same curve were divided by this average value. The calculations of the benchmark concentrations 10 for viability (BMC10 (V)) and 25 for migration (BMC25 (M)) were performed with the online available BMC software (http://invitrotox.uni-konstanz.de/ (accessed on 4 November 2024)).
# neural crest cells (NCC) [2] = experiment: Seahorse oxygen consumption rate (mitochondrial stress test); details: at BMC10 (V) of cMINC, after basal respiration recording
# Description: The Seahorse bioanalyzer simultaneously measures cellular oxygen consumption rates (OCR) and extracellular acidification rates (ECAR). Therefore, NCCs were seeded at least two days prior to the assays at a density of 80,000 cells/well on Seahorse XF96 V3 PS Cell Culture Microplates (Agilent, Santa Clara, CA, USA) in either glucose medium or galactose medium. After 24 h, the medium was exchanged. For the real-time ATP production rate and mitochondrial stress assay, the cartridge was hydrated at 0% CO2 and 37 °C, and the seahorse was turned on to stabilize the temperature one day prior. The medium was changed to Seahorse XF DMEM Medium (Agilent, Santa Clara, CA, USA) supplemented with 2 mM L-glutamine, 1 mM pyruvate and 18 mM glucose or galactose 1 h before the start of the assays. Directly before the start of the assay, the medium was exchanged again. The sensor cartridge was loaded with the test compounds anchored to the BMC10 (V) of the cMINC screen and the recommended concentrations of calibration compounds for a mitochondrial stress test. These were 5 μM oligomycin, 15 μM carbonyl cyanide p-trifluoro methoxyphenylhydrazone (FCCP) and 5 μM rotenone plus 5 μM antimycin A. Additionally, 1 μg/mL H-33342 was added to the rotenone and antimycin A injection to perform afterwards a cell count (Cellomics, Waltham, MA, USA), to which the data were normalized. Six technical replicates were used for control conditions, and three technical replicates were used for other samples. The software Seahorse Analytics (Agilent, Santa Clara, CA, USA) was used for the evaluation (https://seahorseanalytics.agilent.com (accessed on 30 October 2024)).
# neural crest cells (NCC) [3] = experiment: Intracellular ATP measurement (CellTiterGlo); details: at BMC10 (V) of cMINC; for ATP levels: after 60 min
# Description: Cells were seeded at a density of 20,000 cells/well. The NCCs were treated with the BMC10 (V) of the cMINC screen for one hour, six hours or 24 h. Then, a CellTiterGlo-Triton mix was prepared. Therefore, a 0.5% Triton solution in PBS was prepared, and the commercial reagent mix CellTiterGlo 2.0 (Promgea, Madison, WI, USA) was added in a 1:1 ratio. An amount of 50 µL/well of the mix was added to 100 µL of medium. The plate was shaken for two minutes, and 100 µL of the cell mixture was transferred to a white measurement plate. For the blank value, only medium with the mix was measured. Luminescence data of samples were normalized to DMSO solvent controls, and the ATP data are given in % relative to “untreated cells”.
# neural crest cells (NCC) [4] = experiment: Transwell migration assay (FBS chemoattractant, 6 h); details: for effect on transwell migration: negative controls, 100 µM
# Description: Cells were seeded at a density of 50,000 cells/well (150,000 cells/cm^2) into the upper chamber (insert) of the 96-well transwell plates (pore size 8 μm, polycarbonate membrane, Corning, Glendale, AZ, USA). The cells were stimulated to migrate through the membrane by medium supplemented with 5% of the chemoattractant fetal bovine serum (FBS) (PAA Laboratories, Pasching, Austria) in the lower chamber (reservoir). For testing of migration inhibition upon compound treatment, compounds were used at a concentration of BMC10 (V) of prior cMINC testing. Three technical replicates per condition were used. As a control for “unstimulated” migration, medium without any chemoattractant was tested. As an endpoint specific control for “inhibited” migration, CytoD with a concentration of 200 nM was used. After 6 h incubation time, the medium was aspirated, and reservoirs were washed with DPBS. Afterwards, reservoirs were filled with EDTA dissociation solution (DPBS supplemented with 0.1% 0.5 M EDTA UltraPure pH 8.0 (Thermo Fisher Scientific, Waltham, MA, USA), and 0.18% NaCl) containing 0.25 μL/mL calcein-AM and incubated for 30 min at 37 °C. The plates were then centrifuged at 300× g for 5 min (1200 rpm, Heraeus Multifuge 1 S-R, ThermoScientific) to remove migrated cells from the membrane. The tray with 96 wells of permeable inserts was removed, and the receiver plate was measured in the spectrophotometer (TECAN, Männedorf, Switzerland) with an emission wavelength of 520 nm. After subtraction of the blank values, the number of migrated cells was normalized to that of cells stimulated with FBS.
# To perform the experiments under mitochondria-dependent conditions, the cells were handled exactly in the same way, but the medium was adapted. The N2-S medium was adjusted, so that no glucose was present but galactose. The medium consisted of SILAC^TM Advanced DMEM/-F12 FLEX (Gibco/Fisher Scientific, Hampton, NH, USA), 15 μg/mL insulin, 400 μM GlutaMAX, 0.7 mM L-Arginine, 0.5 mM L-Lysine, 21.5 µM Phenol Red, 20 nM progesterone, 100 μM putrescine and 30 nM selenium, 92.5 μg/mL apotransferrin, 4.7 mg/mL galactose (18 mM). The cytokines 20 ng/mL EGF and 20 ng/mL FGF2 were always freshly added to each run.
# [5] = viability, primary screen, 24 h exposure, * = no effect up to highest tested concentration
# [6] = Homo sapiens, 24 h, primary screen, 24 h exposure, read-out: BMC25
Compound,Migration (neural crest cells (NCC) [1]),Viability (neural crest cells (NCC) [1]),Ratio (neural crest cells (NCC) [1]),BMC10 (V) (neural crest cells (NCC) [1]; [5]),BMC25 (M) (neural crest cells (NCC) [1]; [6]),effect on oxygen consumption rate (OCR) after injection (neural crest cells (NCC) [2]),other results
"C=C(C)[C@H]1Cc2c(ccc3c2O[C@@H]2COc4cc(OC)c(OC)cc4[C@@H]2C3=O)O1 [Rotenone, rotenone]",0 % of control,0 % of control,1.9,0.1 µM,–,–,"IC25 (neural crest cells (NCC) [1]; Homo sapiens, 24 h, read-out: BMC25 (M)): 6e-08 M"
"CC(C)(C)c1ccc(CSc2cnn(C(C)(C)C)c(=O)c2Cl)cc1 [Pyridaben, pyridaben]",58 % of control,–,1.8,–,4.7e-05,completely shut down the mitochondrial respiration,"BMC10 (V) (neural crest cells (NCC) [1]; human, 24 h): 83 µM"
"CO/N=C(/C1=NOCCO1)c1ccccc1Oc1ncnc(Oc2ccccc2Cl)c1F [Fluoxastrobin, fluoxastrobin]",60 % of control,95 % of control,4.6,> 100 µM,2e-05,–,effect on viability in the tested concentration range (neural crest cells (NCC) [1]; primary screen): did not reduce viability at all
"O=[N+]([O-])c1cc(C(F)(F)F)c(Cl)c([N+](=O)[O-])c1Nc1ncc(C(F)(F)F)cc1Cl [Fluazinam, fluazinam]",0 % of control,2 % of control,2.0,0.8 µM,4e-07,no decrease in OCR,decline of ATP (neural crest cells (NCC) [3]; after 1 h): > 25%; decline of ATP (neural crest cells (NCC) [3]; after 24 h): > 90%
"CON=C(C(=O)OC)c1ccccc1CON=C(C)c1cccc(C(F)(F)F)c1 [Trifloxystrobin, trifloxystrobin]",85 % of control,–,1.4,–,1.3e-05,–,"BMC10 (V) (neural crest cells (NCC) [1]; human, 24 h): 18 µM"
"COC(=O)N(OC)c1ccccc1COc1ccn(-c2ccc(Cl)cc2)n1 [Pyraclostrobin, pyraclostrobin]",72 % of control,97 % of control,2.6,44 µM,1.7e-05,–,ATP levels (neural crest cells (NCC) [3]): did not decrease
"CCOCn1c(-c2ccc(Cl)cc2)c(C#N)c(Br)c1C(F)(F)F [Chlorfenapyr, chlorfenapyr]",0 % of control,–,1.3,–,5.1e-06,no decrease in OCR,"BMC10 (V) (neural crest cells (NCC) [1]; human, 24 h): 6.8 µM; decline of ATP (neural crest cells (NCC) [3]; after 1 h): > 25%; decline of ATP (neural crest cells (NCC) [3]; after 24 h): > 90%"
"Cc1nn(C)c(Oc2ccccc2)c1C=NOCc1ccc(C(=O)OC(C)(C)C)cc1 [Fenpyroximate, fenpyroximate]",38 % of control,95 % of control,1.9,7 µM and 6.6 µM,3e-06,completely shut down the mitochondrial respiration,ATP levels (neural crest cells (NCC) [3]): did not decrease; decrease in ATP levels (neural crest cells (NCC) [3]; after 6 h): > 25%
"O=C1NS(=O)(=O)c2ccccc21 [Saccharin sodium hydrate, reference compound]",103 % of control,–,–,–,–,–,effect on transwell migration (neural crest cells (NCC) [4]): no inhibited migration was observed
"CO/N=C(/C(=O)OC)c1ccccc1COc1ccccc1C [Kresoxim-methyl, kresoxim-methyl]",72 % of control,33 % of control,1.6,43 µM,2.7e-05,–,–
"C=C1[C@@H](C)[C@H]2[C@H](Cc3ccccc3)NC(=O)[C@]23[C@H](OC(C)=O)/C=C/[C@@](C)(O)C(=O)[C@@H](C)C/C=C/[C@H]3[C@@H]1O [cytochalasin D, Cytochalasin D]",–,–,–,–,–,–,"reduced migration (neural crest cells (NCC) [4]; 200 nM, positive control): 75%"
"Cc1ccc(-c2c(Cl)nc(C#N)n2S(=O)(=O)N(C)C)cc1 [Cyazofamid, cyazofamid]",29 % of control,–,2.6,–,7.8e-06,the OCR increased continuously,"BMC10 (V) (neural crest cells (NCC) [1]; human, 24 h): 20 µM"
"CO/C=C(/C(=O)OC)c1ccccc1Oc1cc(Oc2ccccc2C#N)ncn1 [Azoxystrobin, azoxystrobin]",59 % of control,95 % of control,3.5,> 100 µM,–,–,"BMC25 (M) (neural crest cells (NCC) [1]; primary screen, 24 h exposure): 2.9e-05 M and 3e-05 M; effect on viability in the tested concentration range (neural crest cells (NCC) [1]; primary screen): did not reduce viability at all; ATP levels (neural crest cells (NCC) [3]): did not decrease"
"O=C1O[C@H]([C@@H](O)CO)C(O)=C1O [L-ascorbic acid, reference compound]",100 % of control,–,–,–,–,–,effect on transwell migration (neural crest cells (NCC) [4]): no inhibited migration was observed
